# Reference: US20240116937A1, “Polymorph of (1S,2S,3S,5R)-3-((6-(difluoromethyl)-5-fluoro-1,2,3,4-tetrahydroisoquinolin-8-yl)oxy)-5-(4-methyl-7H-pyrrolo[2,3-D]pyrimidin-7-yl)cyclopentane-1,2-diol” (Pfizer Inc., priority 2020, published 2024)
# Assay: Hygroscopicity: % mass change (ref dry mass) versus RH, free base compared to hydrochloride salt
# Type: physicochemical
# Source text: Hygroscopicity of Free Base (1S,2S,3S,5R)-3-((6-(difluoromethyl)-5-fluoro-1,2,3,4-tetrahydroisoquinolin-8-yl)oxy)-5-(4-methyl-7H-pyrrolo[2,3-d]pyrimidin-7-yl)cyclopentane-1,2-diol Compared to Crystalline (1S,2S,3S,5R)-3-((6-(difluoromethyl)-5-fluoro-1,2,3,4-tetrahydroisoquinolin-8-yl)oxy)-5-(4-methyl-7H-pyrrolo[2,3-d]pyrimidin-7-yl)cyclopentane-1,2-diol hydrochloride salt
compound,measurement,setting,value
"Cc1ncnc2c1ccn2[C@@H]1C[C@H](Oc2cc(C(F)F)c(F)c3c2CNCC3)[C@@H](O)[C@H]1O [Free Base, (1S,2S,3S,5R)-3-((6-(difluoromethyl)-5-fluoro-1,2,3,4-tetrahydroisoquinolin-8-yl)oxy)-5-(4-methyl-7H-pyrrolo[2,3-d]pyrimidin-7-yl)cyclopentane-1,2-diol]",physical stability (hygroscopicity) relative to the dihydrochloride salt of WO2017/212385,,low hygroscopicity
same,% Mass-Ref Dry mass,RH 10,0.1%
same,% Mass-Ref Dry mass,RH 20,0.3%
same,% Mass-Ref Dry mass,RH 30,0.4%
same,% Mass-Ref Dry mass,RH 40,1.8%
same,% Mass-Ref Dry mass,RH 50,2.0%
same,% Mass-Ref Dry mass,RH 60,2.1%
same,% Mass-Ref Dry mass,RH 70,2.2%
same,% Mass-Ref Dry mass,RH 80,2.2%
same,% Mass-Ref Dry mass,RH 90,2.3%
